Measurements: patent publication US8198285B2, “Pyrazine derivatives” (Astrazeneca AB, priority 2010, dated 2012)
Structures can show the parent of a compound that is named as a salt.

Key:
[1] = molecular target: DYRK1a (Dual Specificity Tyrosine Phosphorylated and Regulated Kinase 1a) (Homo sapiens, UniProt Q13627); experiment: Inhibitory activity against DYRK1a; assay type: biochemical
PIM3 = PIM3 (Homo sapiens, UniProt Q86V86); experiment: Inhibitory activity against PIM3; assay type: biochemical
female CRL:CD rats = experiment: Bone densitometry (pQCT) of right femur in rats; assay type: in vivo, rat; conditions: oral once a day, 14 consecutive days, 15 mg/kg
Procedure: For in vitro osteogenesis, human adipose-derived stem cells (hADSC) (Invitrogen, UK; catalogue number R7788-115) were seeded into 12-well plates at a density of 5000 cells/cm^2 and were cultured in a basal media of phenol red-free Dulbecco's Modified Eagles Medium (DMEM; Sigma-Aldrich, UK; catalogue number D1145) supplemented with 5% fetal bovine serum (FBS, Gibco, UK; catalogue number 10270) and 2 mM GlutaMax® (Gibco; catalogue number 35050). […] The formation of mineralized bone nodules was assessed during the time-course using Alizarin Red S staining. […] The amount of mineralisation was quantified through the extraction of the Alizarin Red S stain from bone nodules using a cetylpyridinium chloride extraction method, previously described (Gregory et al., Analytical Biochemistry, 2004, 329: 77-84; Hwang et al., Stem Cells and Development 17: 963-970, 2008). […] Following incubation, 200 μl aliquots were transferred to 96-well format and the absorbance at 550 nm was determined using a microplate spectrophotometer (SpectraMax Plus, Molecular Devices, USA). Data were expressed as mean absorbance at 550 nm±Standard error of mean (SEM). […] Data are shown as mean absorbance at 550 nm and analysed using one-way ANOVA followed by Tukey's multiple comparison post hoc test: n=9; ***, P<0.001. […]

[2] = tested on: Female Sprague Dawley rats; experiment: Increased bone formation in rats: femur histopathology; assay type: in vivo; conditions: rat, oral
Procedure: For in vitro osteogenesis, human adipose-derived stem cells (hADSC) (Invitrogen, UK; catalogue number R7788-115) were seeded into 12-well plates at a density of 5000 cells/cm^2 and were cultured in a basal media of phenol red-free Dulbecco's Modified Eagles Medium (DMEM; Sigma-Aldrich, UK; catalogue number D1145) supplemented with 5% fetal bovine serum (FBS, Gibco, UK; catalogue number 10270) and 2 mM GlutaMax® (Gibco; catalogue number 35050). […] In osteogenic positive control wells, basal media was replaced with a differentiation media; phenol red-free DMEM supplemented with 5% FBS, 2 mM GlutaMax®, 50 μg/ml L-ascorbic acid (Sigma-Aldrich; Catalogue no. A8960), 5 mM β-glycerophosphate (Calbiochem, UK; catalogue number 35675), and 10 nM dexamethasone (Sigma-Aldrich; catalogue number D4902). The cultures were incubated at 37° C. in 5% CO2 with media and compound was replaced every 3-4 days over a time-course of 24 days. The formation of mineralized bone nodules was assessed during the time-course using Alizarin Red S staining. At numerous times throughout the time-course, cells were fixed with 4% paraformaldehyde (Sigma-Aldrich; catalogue number P6148) for 20 min, followed by three washes with phosphate buffered saline (PBS), without calcium chloride and magnesium chloride, (Sigma-Aldrich; catalogue number D8537), before being stained with 40 mM Alizarin Red S (Sigma-Aldrich; catalogue number A5533) (pH4.2) for 20 min at room temperature. Plates were placed on a rocking platform (50 rpm) during staining After staining, cells were washed three times with PBS, and three times with water. Cells were imaged using a Leica M165FC stereomicroscope and associated Leica Application Suite imaging software (Leica Microsystems, UK). The amount of mineralisation was quantified through the extraction of the Alizarin Red S stain from bone nodules using a cetylpyridinium chloride extraction method, previously described (Gregory et al., Analytical Biochemistry, 2004, 329: 77-84; Hwang et al., Stem Cells and Development 17: 963-970, 2008). Briefly, Alizarin Red S stain was extracted from bone nodules through the addition of 1 ml, to each well, of a cetylpyridium chloride buffer consisting of 10% cetylpyridium chloride (Sigma-Aldrich; catalogue number C0732) in 10 mM Na3PO4 (Sigma-Aldrich; catalogue number 342483) (pH7.0) and incubation for 1 h at 37° C. Following incubation, 200 μl aliquots were transferred to 96-well format and the absorbance at 550 nm was determined using a microplate spectrophotometer (SpectraMax Plus, Molecular Devices, USA). Data were expressed as mean absorbance at 550 nm±Standard error of mean (SEM). Differences between groups were examined for statistical significance using one-way analysis of variance (ANOVA) followed by Tukey's multiple comparison post hoc test. P<0.05 was considered significant. […] Experiments were performed in triplicate. […] Data are shown as mean absorbance at 550 nm and analysed using one-way ANOVA followed by Tukey's multiple comparison post hoc test: n=9; ***, P<0.001. […] Female Sprague Dawley rats (Charles River CRL:CD rats, Deal, Margate, UK) aged between 12 and 16 weeks (230-340 g) were dosed with either compound or vehicle with a 5 mL/kg volume administered by oral gavage using straight steel (75 mm, 16 gauge) oral gavage feeding needles (Vet-Tech Solutions Ltd, Congleton, UK) between 7 and 10 am each day. Compound or vehicle was dosed at various doses (including 2.5, 5, 15 or 50 mg/kg/day freebase doses equivalent to 3, 6, 18 and 59 mg/kg of tri-hydrochloride salt) once a day for seven to fourteen days. In some studies a serum sample was taken prior to treatment to measure baseline serum bone biomarkers following overnight fasting. Blood was sampled from the tail vein and serum prepared by adding the blood to serum gel blood collection tubes (Microvette 500 Z-gel, catalogue number 20.1344, Sarstedt, Leicester, UK) and centrifuging the tubes for at 13000 rpm for 5 min at 4° C. […]

[3] = molecular target: CHK2 (checkpoint kinase 2) (Homo sapiens, UniProt O96017); experiment: Inhibitory activity against CHK2; assay type: biochemical
Sequence of CHK2 (checkpoint kinase 2) (O96017 whole entry, species assumed): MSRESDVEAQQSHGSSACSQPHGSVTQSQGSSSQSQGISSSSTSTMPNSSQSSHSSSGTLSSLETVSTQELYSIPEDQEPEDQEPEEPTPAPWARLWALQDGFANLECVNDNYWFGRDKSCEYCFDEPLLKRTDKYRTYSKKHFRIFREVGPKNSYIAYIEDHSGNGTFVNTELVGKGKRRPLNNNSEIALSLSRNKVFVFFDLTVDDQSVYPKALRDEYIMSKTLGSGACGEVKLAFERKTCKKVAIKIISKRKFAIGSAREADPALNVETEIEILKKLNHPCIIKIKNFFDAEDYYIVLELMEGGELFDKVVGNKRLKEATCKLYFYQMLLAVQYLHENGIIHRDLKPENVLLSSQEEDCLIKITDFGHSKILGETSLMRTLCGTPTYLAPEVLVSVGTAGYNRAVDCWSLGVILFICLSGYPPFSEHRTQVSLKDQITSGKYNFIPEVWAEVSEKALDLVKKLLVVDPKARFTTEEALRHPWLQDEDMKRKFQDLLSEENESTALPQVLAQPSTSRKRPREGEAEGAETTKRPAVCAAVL

With `COCCCNCCCc1ccc(-c2cnc(N)c(C(=O)Nc3cccnc3)n2)cc1` [Example 1, 3-Amino-6-(4-{3-[(3-methoxypropyl)amino]propyl}phenyl)-N-pyridin-3-ylpyrazine-2-carboxamide tri-hydrochloride] the “Inhibitory activity against DYRK1a” value [1] was “inhibitory activity”, the “Inhibitory activity against PIM3” value (PIM3) was “inhibitory activity” and the “Increase in right femur metaphysis total BMD compared with vehicle treated rats” value (female CRL:CD rats) was 6.6%. The “Total BMD in femur (mean±SEM)” value (female CRL:CD rats) was 814.41 ± 15 mg/mL, the “Histopathology, morphology in the femur” value ([2]; 5 mg/kg, 7 or 14 days, vs vehicle) was “no differences in morphology in the femur” and the “Focal bone masses in the sub-chondral region” value ([2]; 15 mg/kg, 14 days) was 2 out of 10. For the same molecule, the “Histopathology, bone formation in femur” value ([2]; 15 mg/kg, 14 days) was “evidence of bone formation in both the sub-chondral region and cortical region”, the “Histopathology, bone marrow” value ([2]; 50 mg/kg, 7 days) was “histological evidence of bone marrow cell mobilization and differentiation” and the “Histopathology, cancellous bone compartment” value ([2]; 50 mg/kg, 7 days) was “evidence of increased bone within the cancellous bone compartment”. The “Histopathology, bone changes in femur” value ([2]; 50 mg/kg, 14 days) was “broader range of bone changes suggestive of bone formation”, the “Histopathology, osteoblast hypertrophy” value ([2]; 15 and 50 mg/kg, 7 days) was “evidence of osteoblast hypertrophy” and the “Histopathology, osteoid and bone in femur” value ([2]; 15 and 50 mg/kg, 7 days) was “dose related changes of increased osteoid and bone in both the sub-chondral region and in the cortical bone in the shaft”. The “Inhibitory activity against CHK2” value [3] was “inhibitory activity”.
